According to patent publication US11666589B2, “Pivarubicin and benzarubicin compositions” (Paradox Pharmaceuticals, Inc., priority 2020, dated 2023):

How the values were obtained:
[1] = system: LNCaP human prostate cancer cells transfected with Bcl-2; test: MTT cytotoxicity in Bcl-2 transfected LNCaP cells; type: cell-based; details: 5 μM for 1 h, 72 h drug-free
Procedure: (§1) For the results shown in FIG. 5A, LNCaP cells transfected with Bcl-2 expression vector were assessed for doxorubicin or pivarubicin cytotoxicity, compared to cells transfected with empty vectors. Cells were exposed to 5 μM drug for 1 h, washed, and further incubated for 72 h in drug-free medium. Viability was determined by the MTT assay. For the results shown in FIG. 5B, pivarubicin cytotoxicity in HL-60 cells transfected with Bcr-Abl or Bcl-XL expression vectors were assessed for doxorubicin or pivarubicin cytotoxicity and compared as described for FIG. 5A.

[2] = system: 32D.3 cells; test: Analysis of apoptosis (cytochrome c release immunoblot, TUNEL); type: cell-based, murine; details: 5 μM for 1 hour
Procedure: Detection of DNA fragmentation in apoptotic cells by the TUNEL assay and immunoblot analyses of cytochrome c release were performed as described previously.
Once distributed into microsomal membranes, pivarubicin triggered rapid, mitochondrial-dependent apoptosis that was independent of cell cycle arrest. Marked release of cytochrome c into the cytosol as an indicator of mitochondrial depolarization and dysfunction is detected within 5 hours of drug treatment, while DNA fragmentation, as detected by TUNEL staining, is abundant by 6 hours.
In a study of Cytochrome c (Cyt C) release by pivarubicin (PIV) and control (C), 32D.3 cells were exposed to 5 μM pivarubicin for 1 hour, then incubated in drug-free medium for an additional 4 hours. Cells were then fractionated to isolate the cytosolic fraction, subjected to immunoblotting and treated with anti-cytochrome c monoclonal antibody (1:250) for 2 hours, followed by a 1-hour treatment with 1:1000 dilution of horseradish peroxidase-conjugated goat anti-mouse second antibody as described previously. Proteins were detected by chemiluminescence (FIG. 3A). […] Individual fields of cells were detected for both DNA 3′-end labeling (green: grayscale image in FIG. 3D) or total cellular DNA staining by propidium iodide (red: grayscale images in FIGS. 3C and 3E). […]

[3] = system: HL-60 cells transfected with Bcr-Abl; test: Cytotoxicity in Bcr-Abl transfected HL-60 cells; type: cell-based, human
Procedure: as §1

[4] = biological target: T1, PKCd (Mus musculus, UniProt P28867); test: PKCd translocation (cell fractionation, immunoblot); type: cell-based, murine; details: within 4 hours of treatment with 5 μM; 32D.3 cells
T1 construct: endogenous in cells; host or cells: 32D.3 murine myeloid cells
T1 sequence (P28867 whole entry): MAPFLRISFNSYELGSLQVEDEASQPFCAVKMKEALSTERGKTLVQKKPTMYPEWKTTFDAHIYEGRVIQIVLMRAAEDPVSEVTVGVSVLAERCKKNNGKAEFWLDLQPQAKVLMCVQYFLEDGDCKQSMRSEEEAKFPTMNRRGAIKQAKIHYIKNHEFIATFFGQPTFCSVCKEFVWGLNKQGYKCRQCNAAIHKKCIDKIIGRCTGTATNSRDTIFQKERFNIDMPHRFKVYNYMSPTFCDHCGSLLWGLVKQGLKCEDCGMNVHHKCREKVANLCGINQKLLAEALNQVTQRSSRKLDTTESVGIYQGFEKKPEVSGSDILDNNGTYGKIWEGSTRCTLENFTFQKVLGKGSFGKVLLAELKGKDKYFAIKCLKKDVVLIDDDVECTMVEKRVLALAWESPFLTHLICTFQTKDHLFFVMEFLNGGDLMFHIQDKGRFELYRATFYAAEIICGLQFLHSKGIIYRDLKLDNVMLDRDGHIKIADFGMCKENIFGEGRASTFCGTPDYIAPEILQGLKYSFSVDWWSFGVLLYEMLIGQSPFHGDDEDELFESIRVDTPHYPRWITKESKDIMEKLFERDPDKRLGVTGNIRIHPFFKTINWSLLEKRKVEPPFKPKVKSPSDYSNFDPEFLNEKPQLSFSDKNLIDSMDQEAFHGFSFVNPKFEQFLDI
Description: Inhibition of PKCd activity also selectively impedes pivarubicin cytotoxicity.

For `COc1cccc2c1C(=O)c1c(O)c3c(c(O)c1C2=O)C[C@@](O)(C(=O)COC(=O)C(C)(C)C)C[C@@H]3O[C@H]1C[C@H](NCc2ccccc2)[C@H](O)[C@H](C)O1` [Pivarubicin, N-Benzyladriamycin-14-pivalate], the “effect of Bcl-2 overexpression on rate of drug-induced apoptosis” value [1] was “do not impede”, the “time to marked release of cytochrome c into the cytosol” value ([2]; then drug-free medium) was at most 5 h and the “DNA fragmentation detected by TUNEL staining” value ([2]; by 6 hours) was “abundant”. For the same molecule, the “effect of Bcr-Abl on cytotoxicity” value [3] was “no inhibitory effect” and the PKCd translocation [4] was “translocates from the cytosolic to the membrane fraction”.
